{"source": "patent US10130598B2", "about": "“Methods and compositions for administration of 3-halopyruvate and related compounds for the treatment of cancer” (The Johns Hopkins University, priority 2008, dated 2018)", "key": {"[1]": {"assay": "ATP luminescent assay of 3-BrPA dissolved in alternative buffers", "assay_type": "cell-based", "protocol": "(§1) Cytotoxicity of 3-BrPA was evaluated by the IC50 values, representing the drug concentration which depletes ATP by 50% compared to non-treated control. On day 1, cells were seeded into 96-well plates in a volume of 100 μl per well. On day 2, the medium of all wells was removed and an aliquot of 100 μl of media having serial dilutions of 3-BrPA in PBS, NaHCO3, NaOH, KOH and KHCO3 was added to the appropriate well. After 24 h of drug exposure cytotoxic effects of 3-BrPA were monitored by cellular ATP level using CellTiter-Glo™ assay reagents from Promega Corp (Madison, Wis.). Briefly, 100 μl assay reagent was added to each well and mixed at room temperature for 2 min to develop luminescent signal. The luminescence intensity (cps) from each sample was determined with a spectrometer (Model Victor III, Perkin Elmer, Mass.). Relative luminescence was calculated in proportion to the numbers of living cells per sample well. The results are expressed as the mean of three independent experiments. The intracellular ATP contents were calculated and normalized by equal cell number and expressed as the percentage of the control cells. The IC50 values were estimated graphically from dose-response plots.\nBased on the results described in Example 1, it was concluded that 10 mg of 3-BrPA is the maximum tolerated dose (MTD) if dissolved in 2.75 ml of PBS. […]"}, "MCF7 cells [2]": {"system": "MCF7 cells", "assay": "Trypan blue viability assay, MCF7", "assay_type": "cell-based", "from_the_text": "The non-small cell lung cancer (NSCLC) cell line NCI-H1299, the breast cancer cell lines MCF7 and MDA MB 231 and the Hep3B, Hep2G and SK-Hep1 cells were obtained from the American Type Culture Collection (ATCC) (Manassas, Va., USA) and maintained as a monolayer culture in Eagle's minimum essential medium (MEM, Invitrogen, Gaithersburg, Md., USA) supplemented with 10% fetal bovine serum at 37 C and 5% CO2. All treatments were done in triplicate samples on 96-well plates. VX2 cells were maintained as described in Geschwind et al., Cancer Res., 62:3909-3913 (2002).\nThe efficacy of 3-BrPA in the treatment of breast cancer cells was tested using the cancer cell lines MCF7 and MDA MB 231. As described above, the cell lines were grown as monolayers in MEM (Invitrogen) supplemented with 10% fetal bovine serum (HyClone) at 37 C.° and 5% CO2, and all treatments were done in triplicate samples on 96-well plates.\nThe EC50 of 3-BrPA for MCF7 cells lies between 0.05 and 0.06 mM. […] Therefore, considering that oral administration of 3-BrPA buffered in NaHCO3 is effective in prolonging survival in liver cancer models (Example 2), it is probable that oral administration of 3-BrPA buffered in NaHCO3 would also be effective in the treatment of breast cancer."}, "MCF7 cells [3]": {"system": "MCF7 cells", "assay": "Luminescence ATP assay, MCF7", "assay_type": "cell-based", "protocol": "as §1\nThe anti-metabolic effect of 3-BrPA on MCF7 and MDA MB231 cells was examined using luminescence ATP assays, as described above. […]"}, "[4]": {"system": "Human PANC-10 pancreatic cancer cells", "assay": "Orthotopic xenograft pancreatic cancer model, oral 3-BrPA", "assay_type": "in vivo, NOD/SCID mice", "conditions": "for Tumor size at day 50: NaHCO3-buffered, oral", "protocol": "The efficacy of orally administered 3-BrPA in the treatment of pancreatic cancer was tested using an orthotopic xenograft pancreatic cancer model. Human PANC-10 pancreatic cancer cells were implanted into the pancreas of NOD/SCID mice and allowed to form 4-5 mm^3 sized tumors. Following the establishment of the tumors, tumor-bearing mice were orally administered 250 μl of a NaHCO3-buffered solution containing varying concentrations of 3-BrPA once per day. After 50 days of treatment, the tumor-bearing mice were sacrificed and tumor growth and cancer cell proliferation was analyzed."}, "[5]": {"assay": "Effect of 3-BrPA concentration on tolerability of oral administration", "assay_type": "in vivo, nude mice", "conditions": "for Time to death (all mice died): oral", "protocol": "To determine the effect of compound concentration on the tolerable dose of 3-BrPA, a series of experiments were performed in nude mice to determine how a change in administered volume, and therefore a change 3-BrPA concentration, would influence compound efficacy and animal survival. For these experiments, 3-BrPa was administered at a dose of 200 mg/kg and a pH of 4.\nAll mice in group 1 and 2 (n=3 per group) died within 24 hours after receiving 5 mg of 3-BrPA in volumes of […], respectively."}, "[6]": {"assay": "General toxicology studies, oral NaHCO3-buffered 3-BrPA", "assay_type": "in vivo, nude mice", "conditions": "100 and 200 mg/kg/day oral, single dose to 3-months of daily dosing", "protocol": "General toxicology studies were conducted on nude mice that were orally administered NaHCO3-buffered 3-BrPA at doses of 0, 100 and 200 mg/kg/day. The duration of exposure in this study ranged from a single dose to 3-months of daily dosing. […] 3-BrPA treatment had no effect on body weight."}, "[7]": {"system": "tumors implanted in rabbit livers", "conditions": "cited from earlier work"}}, "data": [{"smiles": "O=C(O)C(=O)CBr", "note": "[3-BrPA, 3-bromopyruvate]", "values": [{"measurement": "IC50 value compared to 3-BrPA dissolved in PBS", "setting": "[1]; dissolved in NaHCO3", "result": "did not show a significantly different in IC50 value"}, {"measurement": "IC50 value compared to 3-BrPA dissolved in PBS", "setting": "[1]; other buffers tested (NaOH, KOH and KHCO3)", "result": "significantly higher IC50 values"}, {"measurement": "Cells died", "setting": "MCF7 cells [2]; 0.05 mM, within 3 hours", "result": "more than 40%"}, {"measurement": "Cell death", "setting": "MCF7 cells [2]; 0.15 mM", "result": 100, "unit": "%"}, {"measurement": "EC50 compared with EC50 of 3-BrPA for VX2 liver cancer cells", "setting": "MCF7 cells [2]; MCF7", "result": "lower"}, {"measurement": "Viability (trypan blue)", "setting": "MCF7 cells [2]; MCF7", "result": "dose and time dependent decrease in viability"}, {"measurement": "ATP level (bioluminescent quantification)", "setting": "MCF7 cells [3]", "result": "dose and time dependent energy (ATP) depletion"}, {"measurement": "Tumor size at day 50", "setting": "[4]; daily dose of 50 mg/kg", "result": "12-14 mm^3"}, {"measurement": "Tumor size at day 50", "setting": "[4]; daily dose of 100 mg/kg", "result": "7-8 mm^3"}, {"measurement": "Tumor size at day 50", "setting": "[4]; daily dose of 150 mg/kg", "result": "4-6 mm^3"}, {"measurement": "Tumor size at day 50", "setting": "[4]; daily dose of 200 mg/kg", "result": "3-5 mm^3"}, {"measurement": "Local metastases", "setting": "[4]; daily dose of 50 mg/kg", "result": "lacked any signs of local metastases"}, {"measurement": "Mitotic index", "setting": "[4]; daily dose of 50 mg/kg", "result": "9-10 mitotic cells per field"}, {"measurement": "Local metastases", "setting": "[4]; daily dose of 100 mg/kg", "result": "lacked any signs of local metastases"}, {"measurement": "Mitotic index", "setting": "[4]; daily dose of 100 mg/kg", "result": 7, "unit": "mitotic cells per field"}, {"measurement": "Local metastases", "setting": "[4]; daily dose of 150 mg/kg", "result": "lacked any signs of local metastases"}, {"measurement": "Mitotic index", "setting": "[4]; daily dose of 150 mg/kg", "result": "2-4 mitotic cells per field"}, {"measurement": "Local metastases", "setting": "[4]; daily dose of 200 mg/kg", "result": "lacked any signs of local metastases"}, {"measurement": "Mitotic index", "setting": "[4]; daily dose of 200 mg/kg", "result": "1-2 mitotic cells per field"}, {"measurement": "Tumor growth", "setting": "[4]; daily dose of 200 mg/kg, day 50", "result": "no signs of growth"}, {"measurement": "Time to death (all mice died)", "setting": "[5]; group 1: 5 mg (200 mg/kg, pH 4) in a volume of 50 ml", "result": "≤ 24", "unit": "h"}, {"measurement": "Time to death (all mice died)", "setting": "[5]; group 2: 5 mg (200 mg/kg, pH 4) in a volume of 100 ml", "result": "≤ 24", "unit": "h"}, {"measurement": "Tolerability of daily oral administration", "setting": "[5]; group 3: 200 mg/kg, pH 4, volume of 150 ml", "result": "did not show any signs of discomfort"}, {"measurement": "Tolerability of daily oral administration", "setting": "[5]; group 4: 200 mg/kg, pH 4, volume of 200 ml", "result": "did not show any signs of discomfort"}, {"measurement": "Tolerability of daily oral administration", "setting": "[5]; group 5: 200 mg/kg, pH 4, volume of 300 ml", "result": "did not show any signs of discomfort"}, {"measurement": "Clinical symptoms", "setting": "[6]", "result": "did not exhibit any treatment related clinical symptoms"}, {"measurement": "Effect on body weight", "setting": "[6]", "result": "no effect"}, {"measurement": "Mortality", "setting": "[6]", "result": "no mortalities"}, {"measurement": "Organ weights, gross pathology and histopathology", "setting": "[6]", "result": "did not show any treatment-related changes"}, {"measurement": "Tumor eradication", "setting": "[7]; administered directly into the liver by intra-arterial injection", "result": "completely eradicate tumors"}, {"measurement": "Therapeutic dose", "setting": "[7]; in 25 ml of PBS, continuous 1 hour intra-arterial infusion", "result": 1.75, "unit": "mM"}, {"measurement": "Biodistribution: tumor uptake", "setting": "[7]; intra-arterially delivered", "result": "high tumor uptake"}, {"measurement": "Effects on healthy tissue", "setting": "[7]; intra-arterially delivered", "result": "no negative effects on healthy tissue"}]}]}
